Assay results from ChEMBL document CHEMBL2384947, “27-Nor-Δ(4)-dafachronic acid is a synthetic ligand of Caenorhabditis elegans DAF-12 receptor” (Bioorg Med Chem Lett, 2013).
Activity calls are given as the source filed them. The calls are words filed in the database; no cut-off is given here.

Assays:
Caenorhabditis elegans [1] = assay: Reduction in resistance to H2O2-induced oxidative stress in Caenorhabditis elegans RG1228 harboring daf-9(rh50) mutant assessed as survival at 250 nM incubated 1 hr prior to H2O2 challenge; assay type: functional, organism-based
Caenorhabditis elegans [2] = assay: Activation of DAF-12 receptor in Caenorhabditis elegans RG1228 harboring daf-9(rh50) mutant assessed as mig phenotype rescue at 250 nM after 3 days
Caenorhabditis elegans [3] = assay: Reduction in resistance to H2O2-induced oxidative stress in wild type Caenorhabditis elegans N2 assessed as survival at 250 nM incubated 1 hr prior to H2O2 challenge relative to control; assay type: functional, organism-based
[4] = (§1) Transactivation of Caenorhabditis elegans DAF-12 receptor LBD transfected in HEK293 cells co-expressing Gal4-DBD after 20 hrs by luciferase reporter gene assay; assay type: cell-based; details: HEK293, 20 h
HEK293 = assay: as §1; assay type: cell-based

**Q.** What does the source list for C[C@H](CCCCC(=O)O)[C@H]1CC[C@H]2[C@@H]3CCC4=CC(=O)CC[C@]4(C)[C@H]3CC[C@]12C?
**A.** Activity (Caenorhabditis elegans [1]): Active; Activity (Caenorhabditis elegans [2]): Active; Activity (Caenorhabditis elegans [3]): Active; EC50 [4]: 10 µM; Activity (HEK293): Dose-dependent effect
